The values below come from patent publication US20140255321A1, “Active Sunscreen Composition” (Rhode Island Hospital, priority 2008, published 2014).

This test concerns Normal Human Dermal Fibroblast cells. Description: CometAssay of DNA damage in dermal fibroblasts exposed to a solar simulator under a protective layer. To be noted: for Comet tail appearance / extent of DNA damage (in words): SYBR I Green visualisation after electrophoresis 25 minutes at 20 volts, FIGS. 2 and 3; for Comet tail appearance / extent of DNA damage (in words) / Integral of Student's Probability Density for Tail Length/Total Length: disodium salt. The class given is cell-based. From the text:
Using a model for human skin (confluent human dermal fibroblasts, Lonza CC-2511), a fluorescent dye was used to evaluate induction of […]. Stilbene-420 was selected for having a broad range of absorption in the UVB and UVA ranges while retaining a relatively narrow emission spectrum centered around 420 nm. A 2% solution of stilbene in water was used for this study.
Stilbene-420 was compared to both unshielded cells and commercial SPF 45 sunblock in their ability to protect Normal Human Dermal Fibroblast cells raised on Lonza FGM-2 media from exposure to the full power of a solar simulator. A CometAssay was used to assess DNA damage to the cells. The resulting data was filtered and analyzed with an Integral of Student's Probability Density.
Using Fibroblast Grown Medium with 10% FBS, normal Human Dermal Fibroblasts (obtained from Lonza Clonetics) were grown to confluence in a 12-well plate. After 6 days, one of the wells was harvested by scraping and stored at 4° C. Using custom aluminum holders, a UV-transparent quartz window was placed above each well, and space between the window and holder sealed with 5% agarose. The windows were then covered with 0.5 mL of 0.5% Stilbene 420 florescent dye in water, commercial SPF 45 sunblock or left alone. Then, the plate was exposed to a Solar Simulator for 22.5 minutes at full intensity. Afterwards, the cells were harvested by scraping and all the cells were suspended in low-melting point for the CometAssay using a kit produced by Trevigen. Though the results of DNA damage are often easy to see, for example, cell death, quantifying the extent to which this damage has occurred can be difficult. The CometAssay is a test measures fairly low levels of DNA Damage. The basic concept of the test is that, given more incipient DNA damage that is dealt, the more fragments of DNA are created and the smaller they become. By embedding the cells in a low melting point agarose gel and lysing them, release of these DNA fragments occurs without inducing further damage. A simple gel electrophoresis process causes the fragments to begin to migrate out of the lysed cells. As smaller fragments move faster, a comet-like tail develops, which can be visualized by using a dye like SYBR1 Green. The relative size, intensity and length of this tail are directly related to the amount of DNA damage a cell has received.
After lysing the cells and running them on an electrophoresis apparatus for 25 minutes at 20 volts, the DNA fragment “tails” were visualized with SYBR I Green dye under a microscope using a 492 nm laser and stored (FIGS. 2a.-c.). Using a MatLAB script, the images were filtered by their intensity to isolate individual cells (FIG. 3). […] This is indicative of damaged DNA which forms a heterogeneous population of DNA strand lengths.
Each cell was measured by the width of the “core,” where the larger, less-damaged pieces of DNA remained, and the length of the “tail” produced from the migration of the smaller fragments. These values were compared in several ratios and a Student t-test was performed (Table 1). From those t-values an Integral of Student's Probability Density was calculated assuming an unequal variance between the different protections. This latter value determines the probability that the data comes from the same population as the control data. For the sunblock-protected cells, there is just an 11% chance when comparing the ratio of tail length to total length of the “comet” to the same ratio for the control. For the unprotected cells, the probability drops to just 4.7%. But, for the dye-protected cells, there was a 96.6% came from the same population, indicating the dye provided the best protection, keeping the cells closest to their original state.

Setting [1] is: Student t-test vs unexposed control cells, Solar Simulator 22.5 minutes at full intensity.
Where [2] appears, read: probability that data come from the same population as the control, unequal variance assumed.

`O=S(=O)([O-])c1ccccc1C=Cc1ccc(-c2ccc(C=Cc3ccccc3S(=O)(=O)[O-])cc2)cc1.[Na+].[Na+]` [Stilbene 420, 2,2″-([1,1′-biphenyl]-4.4′-dyldi-2,1-ethenediyl)bis-benzenesulfonic acid disodium salt]: the “Comet tail appearance / extent of DNA damage (in words)” value was “narrower, shorter tail”. The “Comet tail appearance / extent of DNA damage (in words)” value (listed as stillbene) was “do not form tails”. Further, under setting [1], the “Tail Length/Core Width T-Value” is recorded as 0.2257 and the “Tail Length/Total Length T-Value” is listed as 0.0437. For the same compound, the “Difference T-value” (Student t-test vs unexposed control cells, comet tail/core measures, Solar Simulator 22.5 minutes at full intensity) is 0.1870. Also, under setting [2], the “Integral of Student's Probability Density for Difference” value is listed as 85.83%, the “Integral of Student's Probability Density for Tail Length/Core Width” value is reported as 82.7% and the “Integral of Student's Probability Density for Tail Length/Total Length” value is given as 96.63%. The “Integral of Student's Probability Density for Tail Length/Total Length” value (probability that data come from the same population as the control, unequal variance assumed, listed as dye) is 96.6%. The “Greater chance of being from the same population of unexposed cells than the sunblock protected cells” value (statistical comparison of Stilbene-protected vs sunblock-protected cells) is given as “more than a forty percent greater chance”.
